According to PMC6213879, “Synthesis and Biological Evaluation of Novel Dehydroabietic Acid-Oxazolidinone Hybrids for Antitumor Properties” (International Journal of Molecular Sciences, 2018):

What was measured:
[1] = system: SK-OV-3 human ovarian carcinoma cell line; test: MTT cytotoxicity assay, SK-OV-3; assay type: cell-based; settings: Homo sapiens, SK-OV-3, 48 h, mean ± SD from three independent experiments
Description: (§1) The in vitro antiproliferative activity of the DHAA derivatives 3a–o and 4a–o against four human cancer cell lines (MGC-803 human gastric cancer cell line, CNE-2 human nasopharyngeal carcinoma cell line, SK-OV-3 human ovarian carcinoma cell line, NCI-H460 human lung cancer cell line) and the human normal liver cell line LO2 were evaluated by MTT (methyl thiazolytetrazolium) assay and compared with the parent compound DHAA and the positive control cisplatin in each panel.
(§2) The cytotoxicity of the compounds was evaluated against NCI-H460, MGC-803, SK-OV-3, CNE-2 and LO2 using an MTT assay. Cells were grown on 96-well micro-plates at a density of 4 × 10^3 cells per well in DMEM (dulbecco’s modified eagle medium) medium with 10% FBS (fetal bovine serum). The plates were incubated at 37 °C with 5% CO2. The cells were then exposed to different concentrations of target compounds and cisplatin and incubated for another 48 h. Control wells were formed by culture media with the maximum concentration of DMSO used in each assay (1‰). The cells were stained with 20 µL of MTT in an incubator for about 4 h. The medium was thrown away and replaced by […] DMSO. The absorbance (OD) value was read at 490 nm on an enzyme labeling instrument. Each experiment was repeated at least three times to obtain the mean values.

[2] = system: human normal liver cell line LO2; test: MTT cytotoxicity assay, normal LO2 cells; assay type: cell-based; settings: Homo sapiens, L02, 48 h, mean ± SD from three independent experiments
Description: as §1, §2

MGC-803 cells [3] = test: Hoechst 33258 staining assay; assay type: cell-based, human; settings: 48 h
Description: Hoechst 33258 is a dye that is utilized to identify the transitions of a cell’s nuclear morphology. To determine the morphological changes induced by compound 4j in MGC-803 cells, Hoechst 33258 staining was carried out. MGC-803 cells were treated with various concentrations (0, 1.0, 5.0, 10 µM) of compound 4j for 48 h, and stained with Hoechst 33258.
Cells grown on a sterile cover slip in six-well plates were treated with different concentrations of the test compound for 48 h. The culture medium containing compounds was removed, and the cells were fixed in 4% paraformaldehyde for 10 min. After being washed twice with PBS, the cells were stained with 0.5 mL of Hoechst 33258 (Beyotime, Shanghai, China) for 5 min, and then again washed twice with PBS. The stained nuclei were observed under an OLYMPUS 1X73 fluorescence microscope using 350 nm for excitation and 460 nm for emission.

[4] = system: MGC-803, CNE-2, SK-OV-3, NCI-H460; test: MTT cytotoxicity assay, summary over the four cancer cell lines; assay type: cell-based; settings: Homo sapiens; range over MGC-803, CNE-2, SK-OV-3, NCI-H460; read-out: IC50 values ranging against all the test cell lines
Description: as §1, §2

MGC-803 cells [5] = test: Cell cycle analysis by PI staining and flow cytometry; assay type: cell-based, human; settings: MGC-803, 48 h
Description: To determine the possible role of cell cycle arrest in 4j-induced growth inhibition, MGC-803 cells were treated with different concentrations of compound 4j for 48 h. The cell cycle distribution was investigated by flow cytometric analysis following the staining of DNA with propidium iodide (PI).
The MGC-803 cell line was treated with different concentrations of compound 4j. After 48 h of incubation, cells were washed twice with ice-cold PBS, fixed and permeabilized with ice-cold 70% ethanol at −20 °C overnight. The cells were treated with 100 µg /mL RNase A at 37 °C for 30 min, after being washed with ice-cold PBS, and finally stained with 1 mg/mL propidium iodide (PI) (BD, Pharmingen) in the dark at 4 °C for 30 min. Analysis was performed with the system software (Cell Quest; BD Biosciences, Becton Dickinson FACSAriaIII, NY, USA).

[6] = system: NCI-H460 human lung cancer cell line; test: MTT cytotoxicity assay, NCI-H460; assay type: cell-based; settings: Homo sapiens, NCI-H460, 48 h, mean ± SD from three independent experiments
Description: as §1, §2

MGC-803 cells [7] = test: Apoptosis analysis, Annexin-V/FITC and PI, flow cytometry; assay type: cell-based, human; settings: 48 h, control 9.3%
Description: In order to further confirm whether the 4j-induced reduction in cell viability was responsible for the induction of apoptosis, MGC-803 cells were investigated using the PI and Annexin-V/FITC (fluorescein isothiocyanate) and the number of apoptotic cells was estimated by flow cytometry, after the treatment of the MGC-803 cells at concentrations of 5 and 10 µM for 48 h. The results are illustrated in Figure 2.
MGC-803 cells were seeded at a concentration of 2 × 10^6 cells/mL of the DMEM medium with 10% FBS on 6-well plates to the final volume of 2 mL, and then treated with compound 4j at different concentrations for 48 h. After 48 h, the cells were collected and washed twice with PBS and then resuspended in 100 µL 1 × binding buffer, The cells were subjected to 5 µL of FITC Annexin V and 5 µL propidium iodide (PI) staining using an annexin-V FITC apoptosis kit (BD, Pharmingen) and incubated for 30 min at RT (25 °C) in the dark. Then, 100µL 1× binding buffer were added. The apoptosis ratio was quantified by system software (Cell Quest; BD Biosciences, Becton Dickinson FACSAriaIII, NY, USA).

[8] = system: CNE-2 human nasopharyngeal carcinoma cell line; test: MTT cytotoxicity assay, CNE-2; assay type: cell-based; settings: Homo sapiens, CNE-2, 48 h, mean ± SD from three independent experiments
Description: as §1, §2

[9] = system: MGC-803 human gastric cancer cell line; test: MTT cytotoxicity assay, MGC-803; assay type: cell-based; settings: Homo sapiens, MGC-803, 48 h, mean ± SD from three independent experiments
Description: as §1, §2

Which results are given for CC(C)c1ccc2c(c1)CCC1[C@](C)(C(=O)OCC3CN(c4ccc(F)cc4)C(=O)O3)CCC[C@]21C (stereo partly drawn) [Compound 4j, (1R,4aS)-(3-(4-Fluorophenyl)-2-Oxooxazolidin-5-yl)Methyl-7-Isopropyl-1,4a-Dimethyl-1,2,3,4,4a,9,10,10a-Octahydrophenanthrene-1-Carboxylate]?
IC50 [1]: 4.66 ± 2.13 µM; IC50 [2]: > 100 µM; nuclear morphological changes (Hoechst 33258) (MGC-803 cells [3]; 10.0 µM): number of apoptotic nuclei significantly increased; nuclear morphological changes (Hoechst 33258) (MGC-803 cells [3]; 1.0 and 5.0 µM): some exhibited bright-blue fluorescence due to chromatin condensation; IC50 [4]: 3.82 to 17.8 µM; cell cycle arrest (MGC-803 cells [5]): mainly arrested the MGC-803 cells in the G1 phase; IC50 [6]: 8.44 ± 0.36 µM; percentage of all apoptotic cells (early and late) (MGC-803 cells [7]; 5 µM): 28.5%; percentage of all apoptotic cells (early and late) (MGC-803 cells [7]; 10 µM): 34.3%; IC50 [8]: 17.8 ± 4.69 µM; melting point: 112.8 to 117.5 °C; IC50 [9]: 3.82 ± 0.18 µM
